These results are taken from patent US5187074A, “Method of hydroxylation with ATCC 55086” (Merck & Co., Inc., priority 1992, dated 1993).

The experiment has as its target T1, HIV protease (Human immunodeficiency virus type 1 group M subtype B, UniProt P12497).
T1 construct: HIV protease expressed in Escherichia coli; made in house; host or cells: Escherichia coli
Description: Assay for Inhibition of Recombinant HIV Protease (APRIN 2.1). It is filed as biochemical. Particulars: pH 5.5, 60 min, 37° C. On the procedure: Assay for Inhibition of Recombinant HIV Protease (APRIN 2.1)
Inhibition studies were performed on the reaction of the HIV protease expressed in Escherichia coli with a tritiated peptide substrate [^3 H]-acetyl-Val-Ser-Gln-Asn-(beta-napthyl-Ala)-Pro-Ile-Val-Gln-Gly-Arg-Arg-NH2 (MW 1800). The two arginine residues at the carboxyl terminus give this peptide an overall positive charge at acidic pH and enable it to bind to the H^+ form of DOWEX AG-50W-X8 resin and similar resins.
Aliquots of 25 μl containing 6.0-8.0 nM HIV protease in assay buffer (100 mM sodium acetate, pH 5.5 and 0.1% BSA) are placed in assay tubes. The reaction is initiated by addition of 25 μl aliquots of 4.2 μM tritiated peptide substrate in 100 mM sodium acetate, pH 5.5. After incubation for 60 min at 37° C., the reaction is stopped with 100 μl of 5% H3 PO4, then analysed by application of column chromatography.

Each structure is given as a SMILES string.

Take `CC(C)(C)OC(=O)N[C@@H](Cc1ccccc1)[C@@H](O)C[C@@H](Cc1ccc(OCCN2CCOCC2)cc1)C(=O)N[C@H]1c2ccccc2C[C@H]1O` [L-689,502, N-(cis-2(R)-hydroxy-1(S) -indanyl)-5(S)-(1,1-dimethylethoxycarbonylamino)-4(S)-hydroxy-6-phenyl-2(R)-[(4-(2-(4-morpholinyl)ethoxy)phenyl)methyl]-hexanamide]: the inhibition at 0.000625 µg/mL (0.625 ng/ml, control) was -2%. In addition, the inhibition at 0.00125 µg/mL (1.25 ng/ml, control) came out at 21%. For the same compound, for the setting “2.5 ng/ml, control”, the inhibition at 0.0025 µg/mL came to 54%. Moreover, the inhibition at 0.005 µg/mL (5 ng/ml, control) worked out at 69%. Moreover, the inhibition at 0.01 µg/mL (10 ng/ml, control) was found to be 86%.

Regarding `CC(C)(CO)OC(=O)N[C@@H](Cc1ccccc1)[C@@H](O)C[C@@H](Cc1ccc(OCCN2CCOCC2)cc1)C(=O)N[C@H]1c2ccccc2C[C@H]1O` [L-697,811], the inhibition at 0.0116 µg/mL (11.6 ng/ml, major metabolite from culture S-29-145, read-out: APRIN 2.1 Act. (% Inhib.)) was 92%.
